# Experimental data from PubChem BioAssay AID2060887 (Molecular Pharmacology Branch, DTP, NCI, 2025).
# Tested on: 782815-120-R-J1-PDC complex spheroid viability
# Assay: Anticancer human tumor 782815-120-R-J1-PDC patient-derived colon adenocarcinoma cell line growth inhibition [RAS]
# Details: for IC50: curve of first compound; for viability, T/C: stronger effect = lower value
# Summary of the method: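 Tumour cells grown as complex spheroids with HUVEC endothelial cells and mesenchymal stem cells, treated with RAS pathway inhibitor combinations. Each agent spans half-log steps from near clinical Cmax, or 10 microM where Cmax is unknown.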
# [1] = second compound 0.00316 µM, first compound 0.0316 µM
# [2] = second compound 0.00316 µM, first compound 0.1 µM
# [3] = second compound 0.00316 µM, first compound 0.316 µM
# [4] = second compound 0.00316 µM, first compound 1 µM
# [5] = second compound 0.00316 µM, first compound 3.16 µM
# [6] = second compound 0.00316 µM, first compound 10 µM
# [7] = second compound 0.01 µM, first compound 0.0316 µM
# [8] = second compound 0.01 µM, first compound 0.1 µM
# [9] = second compound 0.01 µM, first compound 0.316 µM
# [10] = second compound 0.01 µM, first compound 1 µM
# [11] = second compound 0.01 µM, first compound 3.16 µM
# [12] = second compound 0.01 µM, first compound 10 µM
# [13] = second compound 0.0316 µM, first compound 0.0316 µM
# [14] = second compound 0.0316 µM, first compound 0.1 µM
# [15] = second compound 0.0316 µM, first compound 0.316 µM
# [16] = second compound 0.0316 µM, first compound 1 µM
# [17] = second compound 0.0316 µM, first compound 3.16 µM
# [18] = second compound 0.0316 µM, first compound 10 µM
# [19] = second compound 0.1 µM, first compound 0.0316 µM
# [20] = second compound 0.1 µM, first compound 0.1 µM
# [21] = second compound 0.1 µM, first compound 0.316 µM
# [22] = second compound 0.1 µM, first compound 1 µM
# [23] = second compound 0.1 µM, first compound 3.16 µM
# [24] = second compound 0.1 µM, first compound 10 µM
# [25] = second compound 0.316 µM, first compound 0.0316 µM
# [26] = second compound 0.316 µM, first compound 0.1 µM
# [27] = second compound 0.316 µM, first compound 0.316 µM
# [28] = second compound 0.316 µM, first compound 1 µM
# [29] = second compound 0.316 µM, first compound 3.16 µM
# [30] = second compound 0.316 µM, first compound 10 µM
# [31] = second compound 1 µM, first compound 0.0316 µM
# [32] = second compound 1 µM, first compound 0.1 µM
# [33] = second compound 1 µM, first compound 0.316 µM
# [34] = second compound 1 µM, first compound 1 µM
# [35] = second compound 1 µM, first compound 3.16 µM
# [36] = second compound 1 µM, first compound 10 µM
# 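Also: spheroids exposed to compounds for 7 days before reading.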
# 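For viability, T/C in this document: 100% = DMSO vehicle control viability.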
structure (smiles),measurement,setting,value
CC1(O)CCCC1n1c(=O)c(C(F)F)cc2cnc(NC3CCN(S(C)(=O)=O)CC3)nc21 (stereo unspecified) + C=CC(=O)N1CCN(c2nc(OCC3CCCN3C)nc3c(F)c(-c4nc(N)cc(C)c4C(F)(F)F)c(Cl)cc23)C(C)C1,IC50,second compound 0.00316 µM,3.64 µM
same,IC50,second compound 0.01 µM,2.36 µM
same,IC50,second compound 0.0316 µM,3.38 µM
same,IC50,second compound 0.1 µM,3.61 µM
same,IC50,second compound 0.316 µM,3.45 µM
same,IC50,second compound 1 µM,0.786 µM
same,"viability, T/C",[1],61.5%
same,"viability, T/C",[2],53%
same,"viability, T/C",[3],54.5%
same,"viability, T/C",[4],57.6%
same,"viability, T/C",[5],53.8%
same,"viability, T/C",[6],22%
same,"viability, T/C",[7],72.5%
same,"viability, T/C",[8],52.3%
same,"viability, T/C",[9],53.3%
same,"viability, T/C",[10],51.8%
same,"viability, T/C",[11],52.1%
same,"viability, T/C",[12],19%
same,"viability, T/C",[13],58.7%
same,"viability, T/C",[14],56.4%
same,"viability, T/C",[15],49.2%
same,"viability, T/C",[16],55.1%
same,"viability, T/C",[17],51.8%
same,"viability, T/C",[18],22.1%
same,"viability, T/C",[19],65.4%
same,"viability, T/C",[20],50.7%
same,"viability, T/C",[21],51.3%
same,"viability, T/C",[22],52.3%
same,"viability, T/C",[23],54.2%
same,"viability, T/C",[24],18.6%
same,"viability, T/C",[25],56.4%
same,"viability, T/C",[26],52.8%
same,"viability, T/C",[27],48.9%
same,"viability, T/C",[28],50.9%
same,"viability, T/C",[29],53.4%
same,"viability, T/C",[30],19.8%
same,"viability, T/C",[31],61%
same,"viability, T/C",[32],55.7%
same,"viability, T/C",[33],47.5%
same,"viability, T/C",[34],46.7%
same,"viability, T/C",[35],44.9%
same,"viability, T/C",[36],18.3%
CCN1CCN(Cc2ccc(Nc3ncc(F)c(-c4cc(F)c5nc(C)n(C(C)C)c5c4)n3)nc2)CC1 + C=CC(=O)N1CCN(c2nc(OCC3CCCN3C)nc3c(F)c(-c4nc(N)cc(C)c4C(F)(F)F)c(Cl)cc23)C(C)C1,IC50,second compound 0.00316 µM,> 1 µM
same,IC50,second compound 0.01 µM,> 1 µM
same,IC50,second compound 0.0316 µM,> 1 µM
same,IC50,second compound 0.1 µM,> 1 µM
same,IC50,second compound 0.316 µM,> 1 µM
same,IC50,second compound 1 µM,> 1 µM
same,"viability, T/C","second compound 0.00316 µM, first compound 0.00316 µM",95.3%
same,"viability, T/C","second compound 0.00316 µM, first compound 0.01 µM",98.8%
same,"viability, T/C",[1],99.3%
same,"viability, T/C",[2],101%
same,"viability, T/C",[3],105%
same,"viability, T/C",[4],128%
same,"viability, T/C","second compound 0.01 µM, first compound 0.00316 µM",98.9%
same,"viability, T/C","second compound 0.01 µM, first compound 0.01 µM",97.2%
same,"viability, T/C",[7],95.8%
same,"viability, T/C",[8],98.2%
same,"viability, T/C",[9],104%
same,"viability, T/C",[10],118%
same,"viability, T/C","second compound 0.0316 µM, first compound 0.00316 µM",102%
same,"viability, T/C","second compound 0.0316 µM, first compound 0.01 µM",105%
same,"viability, T/C",[13],99.5%
same,"viability, T/C",[14],103%
same,"viability, T/C",[15],108%
same,"viability, T/C",[16],118%
same,"viability, T/C","second compound 0.1 µM, first compound 0.00316 µM",93.4%
same,"viability, T/C","second compound 0.1 µM, first compound 0.01 µM",96.1%
same,"viability, T/C",[19],106%
same,"viability, T/C",[20],103%
same,"viability, T/C",[21],108%
same,"viability, T/C",[22],116%
same,"viability, T/C","second compound 0.316 µM, first compound 0.00316 µM",96.5%
same,"viability, T/C","second compound 0.316 µM, first compound 0.01 µM",96.5%
same,"viability, T/C",[25],102%
same,"viability, T/C",[26],99.3%
same,"viability, T/C",[27],111%
same,"viability, T/C",[28],117%
same,"viability, T/C","second compound 1 µM, first compound 0.00316 µM",92%
same,"viability, T/C","second compound 1 µM, first compound 0.01 µM",90.8%
same,"viability, T/C",[31],104%
same,"viability, T/C",[32],96.1%
same,"viability, T/C",[33],108%
same,"viability, T/C",[34],123%
C[C@@H](NC(=O)c1ncnc(N)c1Cl)c1ncc(C(=O)Nc2cc(C(F)(F)F)c(Cl)cn2)s1 + C=CC(=O)N1CCN(c2nc(OCC3CCCN3C)nc3c(F)c(-c4nc(N)cc(C)c4C(F)(F)F)c(Cl)cc23)C(C)C1,IC50,second compound 0.00316 µM,> 10 µM
same,IC50,second compound 0.01 µM,> 10 µM
same,IC50,second compound 0.0316 µM,> 10 µM
same,IC50,second compound 0.1 µM,> 10 µM
same,IC50,second compound 0.316 µM,> 10 µM
same,IC50,second compound 1 µM,> 10 µM
same,"viability, T/C",[1],100%
same,"viability, T/C",[2],106%
same,"viability, T/C",[3],97%
same,"viability, T/C",[4],86%
same,"viability, T/C",[5],83.8%
same,"viability, T/C",[6],72.1%
same,"viability, T/C",[7],104%
same,"viability, T/C",[8],105%
same,"viability, T/C",[9],104%
same,"viability, T/C",[10],88.6%
same,"viability, T/C",[11],80.8%
same,"viability, T/C",[12],71.8%
same,"viability, T/C",[13],116%
same,"viability, T/C",[14],107%
same,"viability, T/C",[15],96.6%
same,"viability, T/C",[16],90%
same,"viability, T/C",[17],90.2%
same,"viability, T/C",[18],71.2%
same,"viability, T/C",[19],111%
same,"viability, T/C",[20],101%
same,"viability, T/C",[21],96.8%
same,"viability, T/C",[22],99.8%
same,"viability, T/C",[23],89.9%
same,"viability, T/C",[24],66.3%
same,"viability, T/C",[25],108%
same,"viability, T/C",[26],113%
same,"viability, T/C",[27],97.3%
same,"viability, T/C",[28],101%
same,"viability, T/C",[29],85%
same,"viability, T/C",[30],74.5%
same,"viability, T/C",[31],114%
same,"viability, T/C",[32],108%
same,"viability, T/C",[33],98.5%
same,"viability, T/C",[34],110%
same,"viability, T/C",[35],92.6%
same,"viability, T/C",[36],65.5%
